From article PMC6270194 (Molecules, 2013)
Marks after values point to notes of the source that are not given here.

Key:
[1] = DPPH· free radical scavenging assay; details: for IC50: DPPH· scavenging, 0.2 mM DPPH· in DMSO, absorbance 515 nm
Protocol: DPPH^· assay is widely used to observe radical scavenging activity of various compounds and extracts. DPPH^· is stable N radical which is reduced to hydrazine during its reaction with hydrogen donors.
Initially, 0.2 mM DPPH^· solution was prepared using DMSO as the solvent. […] During reduction of DPPH^· solution by antiradical compound, absorption of DPPH^· was measured at 515 nm. The spectrophotometric data was acquired using BMG FLUOstar OPTIMA spectrophotometer (BMG Labtech, Durham, NC, USA) and the IC50 values were calculated.

[2] = Ferric reducing ability of plasma (FRAP) assay; details: 10 μM compounds dissolved in DMSO; Trolox equivalence; mean ± SD
Excerpt: The FRAP assay uses antioxidants in a redox-linked colorimetric assay to reduce ferric tripyridyl triazine to ferrous form at low pH [20].
FRAP assay is based on ferric to ferrous ion reduction to test the electron donating capacity of antioxidants. The assay was modified by using the 96-well microplate reader with an injection port system. Briefly, the FRAP working reagent was made using acetate buffer, 2,4,6-Tris (2-pyridyl)-s-triazine solution and ferric chloride in the ratio 10:1:1. […] After 6 min reaction time, absorbance was measured at 593 nm. Trolox standards at different concentrations were used to calculate the antioxidant capacity as mmol Trolox equivalence per L.

[3] = Oxygen radical absorbance capacity (ORAC) assay; details: 1 μM compounds dissolved in DMSO; Trolox equivalence; mean ± SD
Protocol: ORAC assay is based on the free radical damage to a fluorescence probe measured by fluorescence intensity over the time. The fluorescein sodium salt was used as fluorescence probe and change in its intensity was estimated as the index of the degree of free radical damage. Assay was performed using method described elsewhere. Briefly, the standards and samples were prepared using 75 mM phosphate buffer (pH 7). As the peroxy radicals are generated from decomposition of 2,2'-azobis(2-amidino-propane) dihydrochloride (AAPH), the signal was quenched from fluorescein. However, in the presence of antioxidant samples the fluorescence signal can be stabilize which depends directly upon the antioxidant’s capacity to neutralize the free radical. Quadratic relation emerging from florescent area under the decaying curve was used to calculate antioxidant capacity as mmol Trolox equivalence per L.

[4] = test system: angiotensin converting enzyme (ACE); test: Angiotensin converting enzyme (ACE) inhibition assay; format: biochemical; details: 10 μM compounds dissolved in DMSO
Protocol: ACE assay is based on ACE inhibitory activity of test samples. The enzyme activity was measured by production of hippuric acid from the substrate hippuryl-L-histidyl-L-leucine (HHL). ACE cleaves the substrate to expose a free N-terminus, which was fluorogenically labeled with o-phthaldialdehyde (OPA). The florescence signal was measured by using excitation of 350 nm and emission of 500 nm. ACE inhibition activity of samples was measured using the following equation: % inhibition = 100 − (Acontrol − Asample)/Acontrol × 100 (1) where A is the absorbance Equation (1).

Tyrosinase = Tyrosinase inhibition assay (L-DOPA substrate); format: biochemical; details: 10 μM compounds dissolved in DMSO
Protocol: Tyrosinase inhibition was calculated based on previously described methods using L-DOPA as the substrate. Tyrosinase inhibition depended upon the amount of dopachrome produced in the reaction mixture. Absorption was measured at 490 nm to calculate the amount of dopachrome produced. The assay was performed in 96-well clear polystyrene plates using FLUOstar OPTIMA plate reader. The tyrosinase inhibitory effect of sample was measured using the following the Equation (1).

HIV-1 protease = target: T1, HIV-1 protease (Human immunodeficiency virus type 1 group M subtype B, UniProt P04585); test: HIV-1 protease inhibition assay (fluorescent substrate); format: biochemical; details: 10 μM compounds dissolved in DMSO; read-out: % Enzyme Inhibition HIV-I protease
T1 construct: HIV-1 protease enzyme (Sigma Aldrich); purchased Sigma Aldrich
Protocol: HIV-1 protease inhibition was performed by using a previously described method. HIV protease fluorescent substrate and HIV-1 protease enzyme (Sigma Aldrich) were used to determine HIV inhibition capacity of sample. Three primary controls i.e., blank, sample and positive control were used. Reaction mixture of 200 µL comprised of five enzyme units (5U) of HIV-1 protease along with 0.5 pmol of enzyme substrate. After addition of both enzymes and substrates, test compounds were added in different concentrations. Reaction mixture was incubated at 37 °C which leads to generation of fluorescence signal by cleaving Tyr-Pro peptide bond of the substrate. Finally reaction mixture was heated for 5 minutes at 90 °C to stop the reaction. The mixture was centrifuged at 12,000 rpm for 3 min. and supernatant was used to measure the fluorescence signal. The enzyme inhibition was calculated using the Equation (1).

[5] = test system: human endothelial lung cells; test: Cytotoxicity analysis by LDH release assay; format: cell-based; details: 10 µM, 24 hours
Protocol: In the current study authors conducted a toxicology study to confirm safety of compounds and their dosage for potential animal or clinical studies. The study was conducted at 10 µM concentration using human endothelial lung cells. […] Literature reports on cytotoxic behavior of potent natural antioxidants are rare. Research in the field of free radicals mainly deals with screening of novel antioxidants and their mechanism of action.
Human lung cell line (ATCC® PCS-100-022™) was purchased from American Type Culture Collection (Cederlane, Burlington, ON, Canada). Cell lines were maintained and grown in DMEM complete growth media, supplemented with 10% fetal bovine serum (FBS), 100 units/mL penicillin and 100 µg/mL streptomycin (Cederlane) at 37 °C, in a humidified 5% CO2 incubator. Cell growth medium was changed every 48 hours and when cells reached 80% confluence, they were detached from 75 cm^2 tissue culture flask using 0.25% trypsin-EDTA treatment. The detached cells were collected in sterile tube in FBS free media. Collected cells were then counted using the Millipore Scepter 2.0 handheld automated cell counter. Further assay specific analysis was performed as described in section 2.10.
Cytotoxicity assay was performed using Promega Cytotox 96® non-radioactive colorimetric assay (Promega Corporation). The assay measures the lactate dehydrogenase (LDH) release upon cell lysis. The released LDH from cells was measured in an enzymatic assay based on conversion of tetrazolium salt to a red formazan product. Briefly, 5,000 human endothelial lung cells in 100 µL of serum-free culture medium were seeded in 96 well sterile plates. Cells were allowed to adhere to the plates for 24 h at 37 °C in a humidified, 5% CO2 incubator. After 24 h, the serum-free media was replaced by test compounds in 100 µL of serum-free culture medium. […] The test compounds at 10 µM concentration were allowed to interact with cells for 24 hours after which absorbance were recorded at 490 nm using BMG FLUOstar OPTIMA spectrophotometer (BMG Labtech, Durham, NC). […]

Row | SMILES | antiradical capacity lower than other series 3 analogues (fold) ([1]; DPPH assay, relative to other curcumin analogues in series 3) | IC50 [1] [µM] | FRAP antioxidant capacity [2] | ORAC antioxidant capacity [3] | % Enzyme Inhibition ACE [4] | % Enzyme Inhibition Tyrosinase (Tyrosinase) | inhibition at 10 µM (HIV-1 protease) [%] | cytotoxicity ranking (LDH release), in words [5] | radical scavenging capacity higher than curcumin (fold) ([1]; DPPH assay, relative to curcumin)
1 | COc1ccc(/C=C/C(O)=C2\CC/C(=C\c3ccc(OC)cc3)C2=O)cc1 [Compound 3c] | approximately 10 fold | 340 | 1.09 ± 0.1 ^gh mmole TE/L | 1.17 ± 0.1 ^b mmole TE/L | 67.42 ^cd % | 58.54 ^g % | 35.9 | highest cytotoxic behavior | –
2 | O=C1/C(=C(O)/C=C/c2ccc(Cl)cc2)CC/C1=C\c1ccc(Cl)cc1 [Compound 3f] | – | 90 | 1.09 ± 0.1 ^gh mmole TE/L | 1.30 ± 0.02 ^b mmole TE/L | 75.12 ^bc % | 61.31 ^e % | 23.3 | lowest cytotoxicity effects | over 10 fold
